Experiments:
human EP3 = biological target: T1, human EP3 (Homo sapiens, UniProt P43115); assay: Calcium flux assay, human EP3; type: cell-based; conditions: CHO-Gα16 cells, PGE2 (EC80)
T1 construct: expressed in transfected cells; host or cells: CHO-Gα16
T1 sequence (P43115 1-390): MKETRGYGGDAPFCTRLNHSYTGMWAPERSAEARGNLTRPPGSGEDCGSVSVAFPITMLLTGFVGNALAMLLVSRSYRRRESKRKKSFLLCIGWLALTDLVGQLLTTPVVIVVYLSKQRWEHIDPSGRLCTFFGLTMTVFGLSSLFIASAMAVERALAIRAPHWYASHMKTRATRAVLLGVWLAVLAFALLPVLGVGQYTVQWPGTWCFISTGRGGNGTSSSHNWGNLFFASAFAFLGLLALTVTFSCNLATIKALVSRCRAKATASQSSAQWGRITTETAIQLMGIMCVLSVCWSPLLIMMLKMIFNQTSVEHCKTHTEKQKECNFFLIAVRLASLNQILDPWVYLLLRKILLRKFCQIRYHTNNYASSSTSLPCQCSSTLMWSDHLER
Description: (§1) Calcium flux assay was conducted as described in our previous study. Briefly, CHO-Gα16 cells were transfected, respectively, with human EP1, human EP2, human EP3, human EP4, monkey EP4, mouse EP4 and rat EP4 overexpression constructs using lipofectamine 2000 according to the manufacturer’s manual. Cells were then seeded into a 96-well black plate with a cell density of 2 × 10^4 cells/100 μL per well for a 16-h culture. On the next day, cells were incubated for 45 min with reagents (100 μL/well) of Calcium-5 Assay Kit (Molecular Devices, San Jose, CA, USA). Then, cells were pre-treated with indicated concentrations of L001 for 15 min and stimulated with PGE2 (EC80). The calcium flux was detected subsequently by a Flexstation® 3 Multi-Mode Microplate Reader (Molecular Devices, San Jose, CA, USA).

mouse EP4 = biological target: T2, mouse EP4 (Mus musculus, UniProt P32240); assay: Calcium flux assay, mouse EP4; type: cell-based
T2 construct: expressed in transfected cells; host or cells: CHO-Gα16
T2 sequence (P32240 whole entry): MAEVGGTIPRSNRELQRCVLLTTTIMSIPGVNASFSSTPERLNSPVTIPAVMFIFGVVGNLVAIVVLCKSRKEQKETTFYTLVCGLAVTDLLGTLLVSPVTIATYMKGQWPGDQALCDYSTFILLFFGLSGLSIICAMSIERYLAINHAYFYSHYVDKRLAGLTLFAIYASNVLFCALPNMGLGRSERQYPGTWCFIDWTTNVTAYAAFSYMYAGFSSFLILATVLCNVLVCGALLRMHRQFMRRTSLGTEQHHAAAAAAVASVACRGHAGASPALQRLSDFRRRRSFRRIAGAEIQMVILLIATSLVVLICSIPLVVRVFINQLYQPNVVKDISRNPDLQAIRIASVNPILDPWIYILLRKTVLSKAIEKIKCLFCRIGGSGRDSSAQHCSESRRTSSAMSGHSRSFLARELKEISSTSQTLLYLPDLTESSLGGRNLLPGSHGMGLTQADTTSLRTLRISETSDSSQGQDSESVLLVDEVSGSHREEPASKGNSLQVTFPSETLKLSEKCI
Description: as §1

rat EP4 = biological target: T3, rat EP4 (Rattus norvegicus, UniProt P43114); assay: Calcium flux assay, rat EP4; type: cell-based
T3 construct: expressed in transfected cells; host or cells: CHO-Gα16
T3 sequence (P43114 whole entry): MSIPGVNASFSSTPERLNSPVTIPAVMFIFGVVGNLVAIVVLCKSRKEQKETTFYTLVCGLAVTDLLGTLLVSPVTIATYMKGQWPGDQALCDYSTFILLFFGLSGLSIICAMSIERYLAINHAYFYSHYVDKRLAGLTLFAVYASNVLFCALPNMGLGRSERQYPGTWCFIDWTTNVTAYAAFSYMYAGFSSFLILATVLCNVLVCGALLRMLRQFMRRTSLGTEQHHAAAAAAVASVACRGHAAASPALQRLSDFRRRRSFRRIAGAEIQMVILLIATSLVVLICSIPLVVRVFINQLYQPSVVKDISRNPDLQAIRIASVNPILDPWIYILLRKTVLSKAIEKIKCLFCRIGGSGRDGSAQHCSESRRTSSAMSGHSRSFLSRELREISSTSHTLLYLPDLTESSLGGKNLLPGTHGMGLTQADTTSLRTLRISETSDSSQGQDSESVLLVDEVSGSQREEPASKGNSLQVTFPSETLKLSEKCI
Description: as §1

Pan02 cells = assay: Transwell migration assay, Pan02; type: cell-based, murine; conditions: Pan02; with PGE2; 24 h
Description: The transwell assay was conducted as described previously, using 8 μm pore transwell inserts (Corning, NY, USA). Cells were suspended in serum-free DMEM and seeded into upper chambers at appropriate density. The bottom chamber was filled with DMEM supplemented with 10% fetal bovine serum and indicated concentrations of PGE2. The compounds were added in both upper and bottom chambers. […] Migrated cells were counted and quantified using image J.

BxPC-3 cells = assay: Cell viability assay (MTS), BxPC-3; type: cell-based, human; conditions: 72 h
Description: Cells were seeded into 96-well plates and treated with varied concentrations of compounds for 72 hrs. Cell viabilities were determined by using MTS reagent (Promega, Madison, WI, USA) according to the manufacturer’s manual. Spectrophotometric absorbance at 490 nm was measured by Flexstation® 3 Multi-Mode Microplate Reader (Molecular Devices, San Jose, CA, USA). The experiments were independently repeated three times.

[1] = test system: YAP/TEAD reporter in Pan02 cells; assay: TEAD-driven luciferase reporter assay, Pan02; type: cell-based, murine; conditions: 16 h
Description: CHO-K1 cells or pancreatic cancer cell lines were transfected with a cAMP responsive element (CRE) reporter or TEAD reporter using lipofectamine 2000 according to the manufacturer’s manual. […] Then, cells were lysed and luciferase activities were determined using Dual-Luciferase Reporter Assay Kit (Promega, Madison, WI, USA).

[2] = test system: YAP, CYR61 and CTGF mRNA in Pan02 cells; assay: Real-time qPCR of YAP and YAP target genes, Pan02; type: cell-based, murine; conditions: PGE2 0.1 μM, compound 10 μM, 12 h
Description: (§2) Total RNA was extracted from cells using TRIzol reagent. The cDNA was synthesized by RT-PCR kit (Vazyme Biotech, Nanjing, China). The band intensity was determined by the gel image analysis system (Bio-Rad, Hercules, CA, USA). SYBR Green-based qPCR (Yeason, Shanghai, China) was conducted subsequently. Relative mRNA levels of target genes were normalized with β-actin. The sequences of primers are listed in Supplementary Table S1. The raw data are listed in Supplementary Table S2.

[3] = test system: YAP, CYR61, CTGF, Vimentin, Snail, E-cadherin mRNA in BxPC-3 cells; assay: Real-time qPCR of YAP, YAP target genes and EMT markers, BxPC-3; type: cell-based, human; conditions: 12 h
Description: as §2

[4] = Body weight of mice in Pan02-Luc metastasis model; type: in vivo, C57BL/6 mice; conditions: L001 75 mg/kg p.o. daily; gemcitabine 25 mg/kg i.p. twice a week; n = 6
Description: Male C57/BL6 mice (6–8 weeks) were obtained from the National Rodent Laboratory Animal Resources (NRLAR, Shanghai, China). All mice were housed according to Institutional Animal Care and Use Committee guidelines and under a protocol approved by East China Normal University Ethics Committee with respect to animal care and welfare assurance. The bioluminescent liver metastasis mouse model was established as described previously. In brief, 2 × 10^6 Pan02/luc cells suspended in 50 μL of PBS were injected into mice spleen. […] Tumor metastasis was monitored by using an in vivo imaging system following intraperitoneal injection with D-Luciferin (2 mg per mouse; Promega). Bioluminescence intensity was recorded every seven days by a Xenogen IVIS-200 Optical in vivo imaging system (PerkinElmer; Waltham, MA, USA) for up to 4 weeks. The mouse body weight was measured every other day. Survival curve analysis was performed using GraphPad Prism 7.

EP4 = EP4 (Homo sapiens, UniProt P35408); assay: TANGO assay (EP4/β-arrestin2 interaction); type: cell-based; set-up: tTA transcription factor (C); expressed in transfected cells; host or cells: CHO-K1
Sequence of EP4 (P35408 whole entry): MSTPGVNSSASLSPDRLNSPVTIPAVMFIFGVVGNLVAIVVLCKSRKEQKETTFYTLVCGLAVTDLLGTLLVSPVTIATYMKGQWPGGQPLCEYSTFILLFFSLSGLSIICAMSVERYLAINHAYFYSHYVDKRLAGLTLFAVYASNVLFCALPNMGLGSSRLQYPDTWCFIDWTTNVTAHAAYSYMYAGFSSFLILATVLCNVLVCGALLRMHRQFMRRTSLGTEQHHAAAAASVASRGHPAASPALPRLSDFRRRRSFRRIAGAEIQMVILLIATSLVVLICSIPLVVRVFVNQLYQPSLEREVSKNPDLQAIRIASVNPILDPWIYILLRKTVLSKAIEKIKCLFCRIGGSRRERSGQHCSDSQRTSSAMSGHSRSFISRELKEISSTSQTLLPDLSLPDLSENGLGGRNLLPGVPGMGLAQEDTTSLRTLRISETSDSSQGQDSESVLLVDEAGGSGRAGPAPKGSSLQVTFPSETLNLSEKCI
Description: TANGO assay was performed as described previously with some modification. Briefly, CHO-K1 cells were co-transfected with plasmids of EP4-TANGO, β-arrestin-TEV and tTA-luc at a ratio of 0.5:1:1. After 4 h, transfected cells were seeded into 96-well plates and cultured overnight. Then, cells were starved for 5 h and treated with different concentrations of compounds. After incubation for 16 h, cells were lysed and the luciferase activities were determined using Dual-Luciferase Reporter Assay Kit (Promega, Madison, WI, USA).

SMILES: C[C@H](NC(=O)c1c(Cc2cccc(C(F)(F)F)c2)sc2c1CCOC2)c1ccc(C(=O)O)cc1 [L001]
- IC50 (human EP3): > 10000 nM
- IC50 (mouse EP4): 3.2 ± 0.28 nM
- IC50 (rat EP4): 14.2 ± 0.88 nM
- migrated cells in the lower layer of the transwell (Pan02 cells): reduced migrated cells
- cell viability (BxPC-3 cells): did not affect the cell viabilities
- PGE2-driven YAP/TEAD reporter activity [1]: remarkably suppressed
- mRNA expression levels of YAP, CYR61 and CTGF induced by PGE2, in comparison with E7046 [2]: stronger reductions
- PGE2-aroused upregulation of mRNA levels of Vimentin and Snail [3]: remarkably abrogated
- PGE2-mediated downregulation of E-cadherin's expression [3]: reversed
- mRNA expression levels of YAP, CYR61 and CTGF induced by PGE2, in comparison with E7046 ([3]; PGE2 0.1 μM, compound 10 μM): stronger reductions
- body weight loss [4]: barely found
- IC50 (EP4): 0.16 ± 0.03 nM
